A short description of data set [1]: Assay 6 in vitro metabolic stability in cryopreserved human hepatocytes (CL, Fmax). The class given is in vitro ADME. The note with it: 1 μM test compound; for Clblood: hepatic in vivo blood clearance calculated (well-stirred) from half-life in cryopreserved human hepatocytes; for Fmax: maximal oral bioavailability calculated from half-life in cryopreserved human hepatocytes. Here is the method: Assay 6 Method for Human Cryo Hepatocytes:
Investigation of In Vitro Metabolic Stability in Cryopreserved Human Hepatocytes (Including Calculation of Hepatic In Vivo Blood Clearance (CL) and Maximal Oral Bioavailability (Fmax))
Cryopreserved Hepatocytes (e.g. purchased from Celsis InVitroTechnologies) were briefly thawed, washed with 45 mL pre-warmed in in vitro GRO HT medium and centrifuged for 5 min at 50×g. The cell pellet was resuspended in 5 ml of Krebs-Henseleit […] (KHB). Cell viability was determined by trypan blue exclusion.
For the metabolic stability assay liver cells were distributed in WME containing 5% FCS to glass vials at a density of 1.0×10^6 vital cells/ml. The test compound was added to a final concentration of 1 μM. During incubation, the hepatocyte suspensions were continuously shaken at 580 rpm and aliquots were taken at 2, 8, 16, 30, 45 and 90 min, to which equal volumes of cold methanol were immediately added. Samples were frozen at −20° C. over night, after subsequently centrifuged for 15 minutes at 3000 rpm and the supernatant was analyzed with an Agilent 1290 HPLC-system with LCMS/MS detection.
The half-life of a test compound was determined from the concentration-time plot. From the half-life the intrinsic clearances were calculated. Together with the additional parameters liver blood flow, amount of liver cells in vivo and in vitro. The hepatic in vivo blood clearance (CL) and the maximal oral bioavailability (Fmax) was calculated.

The next data set concerns HeLa cells. Description: Assay 1 cell proliferation measurement (CTG, 72 h), HeLa. The note with it: Homo sapiens, HeLa; Assay 1, 72 h, Cell Titer Glo; read-out: HeLa IC50 [nM] (Cervical cancer). Format: cell-based, human. The method, boiled down:
(§1)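 Seed cells, incubate overnight at 37 °C; measure baseline viability (CTG, 0 h plate); dose compound in a 10-step 2.5-fold series (max generally 100 nM final, DMSO 0.3%) for 72 h; read CTG luminescence; fit IC50 with 4 parameters.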
In general terms: Cellular ATP, detected with luciferase, serves as a proxy for viable cell number.

The next data set deals with human full length PDE3B (Homo sapiens (Human), UniProt Q13370). Nature of the data set: Assay 5 PDE3B enzyme inhibition (3H-cAMP SPA). The note with it: Sf9 cell extract. Format: biochemical. The procedure, abridged:
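Compounds in DMSO are mixed with diluted PDE3B extract from Sf9 cells, and reactions start on adding tritiated cAMP. After 60 min at room temperature, yttrium scintillation proximity beads terminate hydrolysis and signal is counted; IC50 values come from sigmoidal dose-response curves.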

For the next data set, the target named is human full length PDE3A (Homo sapiens (Human), UniProt Q14432). Description: Assay 4 PDE3A enzyme inhibition (3H-cAMP SPA). Format: biochemical. The note with it: Sf9 cell extract. The method, boiled down:
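Enzyme: Sf9 extract with overexpressed full-length PDE3A; substrate [8-3H]cAMP, 0.025 μCi/well; 60 min, room temperature, Tris/HCl pH 7.5 buffer with MgCl2, EDTA, BSA.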

Another data set relates to SK-MEL-3 cells. Nature of the data set: Assay 1 cell proliferation measurement (CTG, 72 h), SK-MEL-3. Format: cell-based, human. As to conditions: Homo sapiens, SK-MEL3; Assay 1, 72 h, Cell Titer Glo; read-out: SK-MEL-3 IC50 [nM] (melanoma). The procedure, abridged: as §1
Another data set concerns IGR37 cells. Nature of the data set: Assay 1 cell proliferation measurement (CTG, 72 h), IGR37. Format: cell-based. The note with it: Homo sapiens, IGR-37, Cell Titer Glo, read-out: IGR37 IC50 [nM] (melanoma).

Among the data in patent US11427553B2, “Dihydrooxadiazinones” (Bayer Aktiengesellschaft, priority 2017, dated 2022) are Clblood, Fmax and IC50 values, retold here.

human full length PDE3A, sequence (Q14432 whole entry): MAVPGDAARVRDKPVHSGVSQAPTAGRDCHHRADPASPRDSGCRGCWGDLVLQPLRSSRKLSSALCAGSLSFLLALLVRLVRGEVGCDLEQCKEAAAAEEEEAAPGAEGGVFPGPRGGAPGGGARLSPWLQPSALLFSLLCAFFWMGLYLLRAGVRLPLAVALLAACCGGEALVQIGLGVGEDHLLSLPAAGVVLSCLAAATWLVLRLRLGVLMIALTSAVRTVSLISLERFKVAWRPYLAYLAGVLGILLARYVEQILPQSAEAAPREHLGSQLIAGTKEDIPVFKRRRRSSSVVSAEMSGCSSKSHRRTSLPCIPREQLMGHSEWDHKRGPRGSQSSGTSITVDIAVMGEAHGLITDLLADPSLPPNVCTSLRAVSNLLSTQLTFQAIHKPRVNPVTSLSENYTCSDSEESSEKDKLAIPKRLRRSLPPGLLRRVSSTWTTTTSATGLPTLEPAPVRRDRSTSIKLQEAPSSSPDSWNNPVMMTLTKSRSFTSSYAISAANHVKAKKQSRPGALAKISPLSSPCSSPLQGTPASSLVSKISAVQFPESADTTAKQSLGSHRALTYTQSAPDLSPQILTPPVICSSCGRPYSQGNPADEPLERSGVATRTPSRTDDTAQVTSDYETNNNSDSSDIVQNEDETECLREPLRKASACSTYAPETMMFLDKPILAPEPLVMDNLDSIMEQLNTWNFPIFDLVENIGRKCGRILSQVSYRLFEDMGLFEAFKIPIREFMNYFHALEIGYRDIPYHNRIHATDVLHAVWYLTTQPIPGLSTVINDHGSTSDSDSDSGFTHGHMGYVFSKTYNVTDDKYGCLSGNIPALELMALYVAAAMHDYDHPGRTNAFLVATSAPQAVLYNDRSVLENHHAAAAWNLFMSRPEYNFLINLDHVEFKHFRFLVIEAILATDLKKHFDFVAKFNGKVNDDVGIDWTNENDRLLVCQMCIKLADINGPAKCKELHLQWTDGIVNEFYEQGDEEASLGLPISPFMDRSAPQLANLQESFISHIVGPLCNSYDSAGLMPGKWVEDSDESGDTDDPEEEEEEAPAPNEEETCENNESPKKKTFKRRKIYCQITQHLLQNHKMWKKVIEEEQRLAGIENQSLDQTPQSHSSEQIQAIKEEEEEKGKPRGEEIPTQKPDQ
human full length PDE3B, sequence (Q13370 whole entry): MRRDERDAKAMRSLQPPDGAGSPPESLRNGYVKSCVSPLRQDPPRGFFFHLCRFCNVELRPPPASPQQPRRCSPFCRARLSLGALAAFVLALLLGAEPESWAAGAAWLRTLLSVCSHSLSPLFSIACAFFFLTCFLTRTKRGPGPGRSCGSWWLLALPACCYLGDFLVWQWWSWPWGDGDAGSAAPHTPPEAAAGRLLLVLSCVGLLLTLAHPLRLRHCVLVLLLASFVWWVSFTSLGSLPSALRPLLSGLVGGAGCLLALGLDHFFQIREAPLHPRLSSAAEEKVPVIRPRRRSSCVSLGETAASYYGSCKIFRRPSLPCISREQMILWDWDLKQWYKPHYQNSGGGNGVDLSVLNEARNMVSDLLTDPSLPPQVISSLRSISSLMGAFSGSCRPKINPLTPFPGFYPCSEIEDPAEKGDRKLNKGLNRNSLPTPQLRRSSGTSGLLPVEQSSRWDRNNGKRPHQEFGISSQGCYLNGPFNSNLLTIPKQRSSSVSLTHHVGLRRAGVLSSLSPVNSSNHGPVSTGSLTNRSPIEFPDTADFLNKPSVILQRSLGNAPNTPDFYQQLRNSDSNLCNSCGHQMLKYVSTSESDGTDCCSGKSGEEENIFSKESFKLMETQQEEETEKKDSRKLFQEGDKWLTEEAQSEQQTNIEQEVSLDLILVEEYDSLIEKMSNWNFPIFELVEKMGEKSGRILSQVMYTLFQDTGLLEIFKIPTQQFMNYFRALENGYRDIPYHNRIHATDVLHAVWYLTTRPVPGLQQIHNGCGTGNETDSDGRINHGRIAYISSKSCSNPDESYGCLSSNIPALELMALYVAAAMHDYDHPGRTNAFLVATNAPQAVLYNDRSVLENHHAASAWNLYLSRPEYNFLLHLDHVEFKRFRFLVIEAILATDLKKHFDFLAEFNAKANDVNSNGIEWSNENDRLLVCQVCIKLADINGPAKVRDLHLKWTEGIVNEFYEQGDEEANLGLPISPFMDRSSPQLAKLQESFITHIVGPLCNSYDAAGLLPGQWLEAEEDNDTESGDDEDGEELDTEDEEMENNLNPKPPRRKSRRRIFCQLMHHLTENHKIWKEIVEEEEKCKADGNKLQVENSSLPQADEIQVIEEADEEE

As to `CCC(CNc1ccc(C2=NNC(=O)OC2)cc1C(F)(F)F)OC` (centres unmarked) [Example 281, 5-{4-[(2-methoxybutyl)amino]-3-(trifluoromethyl)phenyl}-3,6-dihydro-2H-1,3,4-oxadiazin-2-one], in data set [1], the Clblood is 14.2 mL/min/kg and the Fmax is recorded as 35%. In addition, the IC50 in the data set with HeLa cells worked out at 12 nM.
For `CC(C)(C)Nc1ccc(C2=NNC(=O)OC2)cc1C(F)(F)F` [Example 224, 5-[4-(tert-Butylamino)-3-(trifluoromethyl)phenyl]-3,6-dihydro-2H-1,3,4-oxadiazin-2-one], in data set [1], the Clblood was 5.83 mL/min/kg. Besides, the Fmax in data set [1] is reported as 74%. Further, the IC50 on human full length PDE3B is 200 nM; at human full length PDE3A, 165 nM; in the data set on HeLa cells it was 2 nM; in the data set with SK-MEL-3 cells it was 3 nM.
In the case of `CC(C)c1ccc(C2=NNC(=O)OC2)cc1C(F)(F)F` [Example 270, 5-[4-(Propan-2-yl)-3-(trifluoromethyl)phenyl]-3,6-dihydro-2H-1,3,4-oxadiazin-2-one], in data set [1], the Clblood was below 0.17 mL/min/kg. For the same molecule, in data set [1], the Fmax is listed as 100%. Moreover, the IC50 on human full length PDE3B is 170 nM; against human full length PDE3A it was 55 nM; in the data set on HeLa cells, 9 nM; with SK-MEL-3 cells, 15 nM.
On to `C[C@@H]1OC(=O)NN=C1c1ccc(N2CC(C)(O)C2)c(C(F)(F)F)c1` [Example 280, (6S)-5-[4-(3-Hydroxy-3-methylazetidin-1-yl)-3-(trifluoromethyl)phenyl]-6-methyl-3,6-dihydro-2H-1,3,4-oxadiazin-2-one], for which the IC50 in the data set with IGR37 cells was found to be 0.4 nM; in the data set with HeLa cells, 0.1 nM; in the data set with SK-MEL-3 cells it was 0.4 nM.
On to `NC(=O)CNc1ccc(C2=NNC(=O)OC2)cc1C(F)(F)F` [Example 256, N^2-[4-(2-Oxo-3,6-dihydro-2H-1,3,4-oxadiazin-5-yl)-2-(trifluoromethyl)phenyl]glycinamide], for which, in data set [1], the Clblood was 1.2 mL/min/kg. Also, the Fmax in data set [1] is reported as 95%. Besides, the IC50 against human full length PDE3B is 480 nM; at human full length PDE3A, 240 nM; in the data set on HeLa cells, 37 nM; in the data set on SK-MEL-3 cells it was 63 nM.
Regarding `O=C1NN=C(c2ccc(-c3ccc(F)cc3F)c(F)c2)CO1` [Example 111, 5-(2,2′,4′-Trifluoro[1,1′-biphenyl]-4-yl)-3,6-dihydro-2H-1,3,4-oxadiazin-2-one], the Clblood in data set [1] is 5.33 mL/min/kg. Besides, the Fmax in data set [1] was 76%. Moreover, the IC50 at human full length PDE3B came out at 81 nM; against human full length PDE3A, 72 nM; with HeLa cells it was 2 nM; with SK-MEL-3 cells, 4 nM.
On to `O=C1NN=C(c2ccc(-c3ccc(Cl)cc3)c(OC(F)(F)F)c2)CO1` [Example 71, 5-[4′-Chloro-2-(trifluoromethoxy)biphenyl-4-yl]-3,6-dihydro-2H-1,3,4-oxadiazin-2-one], for which the Clblood in data set [1] was 3.17 mL/min/kg. Moreover, the Fmax in data set [1] was 86%. Besides, the IC50 was above 1000 nM against human full length PDE3B, above 1000 nM on human full length PDE3A, 20 nM in the data set with HeLa cells and 38 nM in the data set with SK-MEL-3 cells.
For the molecule `CC1(O)CN(c2ccc(C3=NNC(=O)OC3)cc2C(F)(F)F)C1` [Example 203, 5-[4-(3-Hydroxy-3-methylazetidin-1-yl)-3-(trifluoromethyl)phenyl]-3,6-dihydro-2H-1,3,4-oxadiazin-2-one], the Clblood in data set [1] was 10.2 mL/min/kg. The Fmax in data set [1] is on record as 54%. The IC50 was 88 nM on human full length PDE3B, 37 nM at human full length PDE3A, 1 nM with HeLa cells and 2 nM with SK-MEL-3 cells.
In the case of `COC/C=C/c1ccc(C2=NNC(=O)OC2)cc1C(F)(F)F` [Example 140, 5-{4-[3-Methoxyprop-1-en-1-yl]-3-(trifluoromethyl)phenyl}-3,6-dihydro-2H-1,3,4-oxadiazin-2-one], the Clblood in data set [1] is 8.5 mL/min/kg. Further, the Fmax in data set [1] is listed as 61%. Further, the IC50 against human full length PDE3B came to 80 nM; against human full length PDE3A it was 58 nM; in the data set with HeLa cells, 1 nM; in the data set with SK-MEL-3 cells, 1 nM.
Turning to `O=C1NN=C(c2ccc(-c3cnn(C(F)F)c3)c(C(F)F)c2)CO1` [Example 195, 5-{3-(Difluoromethyl)-4-[1-(difluoromethyl)-1H-pyrazol-4-yl]phenyl}-3,6-dihydro-2H-1,3,4-oxadiazin-2-one], in data set [1], the Clblood was below 0.17 mL/min/kg. The Fmax in data set [1] was 100%. Moreover, the half-inhibitory concentration (IC50) against human full length PDE3B amounted to 77 nM; against human full length PDE3A, 58 nM; with HeLa cells, 2 nM; in the data set with SK-MEL-3 cells, 5 nM.
Take `CC(C)Cc1ccc(C2=NNC(=O)OC2)cc1C(F)(F)F` [Example 268, 5-[4-(2-Methylpropyl)-3-(trifluoromethyl)phenyl]-3,6-dihydro-2H-1,3,4-oxadiazin-2-one]: the Clblood in data set [1] was 5 mL/min/kg. In addition, the Fmax in data set [1] was 78%. The IC50 amounted to 110 nM against human full length PDE3B, 138 nM on human full length PDE3A, 1 nM in the data set with HeLa cells and 3 nM with SK-MEL-3 cells.
On to `O=C1NN=C(c2ccc(-c3ccc(Cl)cc3)c(C(F)F)c2)CO1` [Example 199, 5-[4′-Chloro-2-(difluoromethyl)[1,1′-biphenyl]-4-yl]-3,6-dihydro-2H-1,3,4-oxadiazin-2-one], for which, in data set [1], the Clblood was 15.7 mL/min/kg. The Fmax in data set [1] is 29%. Moreover, the IC50 on human full length PDE3B was found to be 200 nM; against human full length PDE3A, 210 nM; in the data set on HeLa cells, 2 nM; in the data set with SK-MEL-3 cells it was 5 nM.
Take `O=C1NN=C(c2ccc(-c3ccc(F)cc3)c(C(F)F)c2)CO1` [Example 198, 5-[2-(Difluoromethyl)-4′-fluoro[1,1′-biphenyl]-4-yl]-3,6-dihydro-2H-1,3,4-oxadiazin-2-one]: the Clblood in data set [1] was 7.33 mL/min/kg. In addition, in data set [1], the Fmax is recorded as 67%. Also, the IC50 worked out at 130 nM at human full length PDE3B, 170 nM at human full length PDE3A, 6 nM with HeLa cells and 14 nM in the data set on SK-MEL-3 cells.
On to `CCOCCNc1ccc(C2=NNC(=O)OC2)cc1C(F)(F)F` [Example 260, 5-{4-[(2-Ethoxyethyl)amino]-3-(trifluoromethyl)phenyl}-3,6-dihydro-2H-1,3,4-oxadiazin-2-one], for which the Clblood in data set [1] is 14.3 mL/min/kg. Also, the Fmax in data set [1] was 35%. The IC50 at human full length PDE3B is 170 nM; against human full length PDE3A, 48 nM; with HeLa cells it was 1 nM; in the data set on SK-MEL-3 cells it was 3 nM.
Take `Cc1cc(F)ccc1-c1ccc(C2=NNC(=O)OC2)cc1C` [Example 9, 5-(4′-Fluoro-2,2′-dimethylbiphenyl-4-yl)-3,6-dihydro-2H-1,3,4-oxadiazin-2-one]: in data set [1], the Clblood was 3.17 mL/min/kg. Moreover, the Fmax in data set [1] was 85%. Also, the half-maximal inhibitory concentration (IC50) worked out at 240 nM on human full length PDE3B, 440 nM against human full length PDE3A, 15 nM with HeLa cells and 33 nM in the data set on SK-MEL-3 cells.
On to `Cc1cc(F)ccc1-c1ccc(C2=NNC(=O)OC2)cc1F` [Example 162, 5-(2,4′-Difluoro-2′-methyl[1,1′-biphenyl]-4-yl)-3,6-dihydro-2H-1,3,4-oxadiazin-2-one], for which the Clblood in data set [1] is 10.3 mL/min/kg. In addition, the Fmax in data set [1] was 53%. Moreover, the IC50 worked out at 120 nM at human full length PDE3B, 210 nM against human full length PDE3A, 4 nM in the data set with HeLa cells and 7 nM in the data set with SK-MEL-3 cells.
As to `O=C1NN=C(c2ccc(N3CCOCC3)c(C(F)(F)F)c2)CO1` [Example 65, 5-[4-(Morpholin-4-yl)-3-(trifluoromethyl)phenyl]-3,6-dihydro-2H-1,3,4-oxadiazin-2-one], the concentration for half-maximal inhibition (IC50) against human full length PDE3B came to 30 nM; at human full length PDE3A, 25 nM; in the data set with HeLa cells, 2 nM; in the data set on SK-MEL-3 cells, 3 nM.
`O=C1NN=C(c2ccc(NC3CCOCC3)c(C(F)(F)F)c2)CO1` [Example 205, 5-{4-[(Oxan-4-yl)amino]-3-(trifluoromethyl)phenyl}-3,6-dihydro-2H-1,3,4-oxadiazin-2-one]: the IC50 against human full length PDE3B came out at 123 nM; at human full length PDE3A, 53 nM; in the data set with HeLa cells it was 4 nM; with SK-MEL-3 cells, 5 nM.

A word on the IC50: it is the concentration that gives 50% inhibition.
